For one data set, the system named is THP-1 cells. As to the kind of experiment: Cytotoxicity in the THP-1 NFκB assay. The class given is cell-based, human. The conditions noted are these: at active concentrations.
The test system of data set [1] is adjuvant-induced arthritis. As to the kind of experiment: Rat adjuvant-induced arthritis model. It counts as in vivo. Here is the method: Male Dark Agouti (DA) strain (DA.CD45.1) rats were fed with either compound (1)-treated feed or placebo-treated feed for seven days prior to the injection of Complete Freund's adjuvant (0.1 ml) into the base of the tail. The treated feeds were continued throughout the experiment. Arthritis, which became evident at Day 8 was subjectively scored each day by an operator blinded to the identity of treatments and using a scoring system as follows: • 0 (no evidence of arthritis); • 1 (1 or 2 red, swollen joints but no other swelling); • 2 (carpus or tarsus swollen or more than 2 small joints swollen); • 3 (some red swollen joints and carpus or tarsus swollen, but not global swelling); • 4 (severe global swelling of the entire paw). Therefore, the disease score for individual rats ranged between 0 and 16. Rats (n=8 per group) were killed on Day 12. Data were analysed using a two way ANOVA (Prism 4 for Windows, GraphPad Software Inc).

The next data set has as its system aortic ring. The data set is described as follows: Rat aortic ring assay (contraction to noradrenaline). The conditions noted are these: 1 μg/ml, p=0.045, read-out: Inhibition of the contractile response (logEC50) to noradrenaline compared with vehicle alone. Here is the method: Male Sprague-Dawley rats (250±50 g) were euthanased with 80% CO2 and 20% O2. The thoracic aorta was excised and quickly mounted in organ-baths as described (Chin-Dusting et al. 2001). Full concentration-contractile curves were obtained to noradrenaline (0.1 nM-10 mM) with and without test compounds delivered at a concentration of 1 μg/ml. Experiments were repeated in n=5 different rings from 5 different animals. Only one compound at any one concentration was tested on any one ring from any one animal. Sigmoidal dose response curves were fitted for the data and the logEC50 calculated (Prism 4, GraphPad Software). The difference in these values between the presence and absence of test compound was calculated using a two-tailed paired t test. The effects of β-oestrodiol and vehicle alone were examined as a positive and negative control respectively.

Consider `CN(C)Cc1cc2c(cc1O)OCC(c1ccc(O)cc1)=C2` [Compound (1)], for which the Cytotoxicity entry with THP-1 cells is listed as “absence of cytotoxicity”. Further, the “Joint score (mean ± SD)” value came out at 0 in data set [1] (Day 7, treated feed, score 0-16); 0.5 ± 0.53 in data set [1] (Day 8, placebo 0.38 ± 0.52); 3.25 ± 1.58 in data set [1] (Day 9, placebo 4.75 ± 1.28); 6.25 ± 1.49 in data set [1] (Day 10, placebo 7.75 ± 1.39); 9.25 ± 1.28 in data set [1] (Day 11, placebo 11.75 ± 1.04); 12.75 ± 2.92 in data set [1] (Day 12, placebo 14.13 ± 1.46). Further, the “Arthritis score compared with placebo feed (in words)” value in data set [1] (two way ANOVA) is on record as “statistically significant (p=0.008) reduction in arthritis score”. Moreover, the inhibition at 1 µg/mL with aortic ring was 23%.

(Values after US20120003270A1, “6-SUBSTITUTED ISOFLAVONOID COMPOUNDS AND USES THEREOF” (priority 2008, published 2012).)
